{"source": "patent US20150343016A1", "about": "“CHEMICAL ENTITIES AND THERAPEUTIC USES THEREOF” (The Regents of the University of Colorado, a body corporate, priority 2010, published 2015)", "assay_type_in_all_cases": "cell-based, human", "key": {"[1]": {"tested_on": "H157 cells", "experiment": "Clonogenic assay, Bouvardin with IR, H157", "procedure": "To assess the effect of Bouvardin, another measure of cell survival, namely, clonogenic assays, was employed. […] For example, IC50 for IR at 0 and 10 nM of Bouvardin, extrapolated from the graph in FIG. 17A, are approximately 1.5 Gy and 1.0 Gy (dark and light dotted lines respectively).\nIn FIG. 17 (A) Clonogenic assays were used to confirm the effects of Bouvardin in combination with radiation in H157 cells. Cells were plated in 6 well plates at 1,000 cells per well. 24 hours later, various doses of (1 nM, 5 nM and 10 nM) of Bouvardin were added with media alone as a control. 24 hours after the addition of Bouvardin, the cells were irradiated at 0, 2, 4 and 6 Gy. Colonies were allowed to form for 2 weeks and then counted. The results are shown as a percentage of control (no drug, no IR). Error bar=±1SEM. (B) The effect of Bouvardin (Bvd) and radiation on H157 xenografts in athymic mice. Bouvardin treatment began when tumors had reached approximately 200 mm3. […]\nThe survival of cells treated with Bouvardin and IR was measured by performing standard clonogenic assays. […] The colonies were then stained with crystal violet (1% in methanol), rinsed 3× with water, and colonies with greater than 50 cells were counted using a dissection microscope. Fraction survival was calculated as a percentage of the control (no drug, no IR)."}, "[2]": {"tested_on": "17 cell lines including Head and Neck Squamous Cell Carcinoma and non-small cell lung cancer lines", "experiment": "MTT assays, Bouvardin with radiation, panel of 17 cell lines", "text": "The observation that Bouvardin enhanced the effect of radiation on Drosophila larvae led us to question whether this effect would translate to a mammalian system. In order to determine what cell lines should be used to create tumor xenografts in mice, MTT assays for cell viability were used first to test the effects of Bouvardin alone and in combination with radiation in human cancer cells. MTT assays measure cell viability by measuring mitochondrial enzyme function. We used 17 cell lines including Head and Neck Squamous Cell Carcinoma and non-small cell lung cancer lines.\nThe data for non-small cell lung cancer cell line (H157) is depicted in FIG. 16.\nThe growth inhibitory effects of Bouvardin with ionizing radiation (IR) were evaluated using a modified tetrazolium salt (MTT) assay. In the MTT assay, 1,000 to 2,000 viable cells were plated in 100 uL of growth medium in 96-well plates (Corning, Ithaca, N.Y.). Following an overnight incubation, drug was added in varying concentrations and the plates were irradiated on the same day (co-treatment) or 24 hr later (pre-treatment) and incubated for 6 to 7 days. The tetrazolium salt was added at a concentration of 0.4 mg/mL to each well following the 6- to 7-day treatment. The plates were incubated with the salt for 4 hours at 37° C. […] The absorbency of each well was measured using an automated plate reader (Molecular Devices, Sunnyvale, Calif.). […]"}, "[3]": {"tested_on": "Det562 cells", "experiment": "MTT assay, Bouvardin with ionizing radiation, Det562 (same-day treatment)", "procedure": "“Combination Index” computation. Combination Indices were calculated using CalcuSyn software (Biosoft), which uses the method of Chou and Talalay. This method first computes drug-induced effect using the Hill Equation: where E is the measured effect; C is the drug concentration; Emax is the full range of drug effect, usually at or near 100%; IC50 is the drug concentration producing the median effect of 50%; and n is the curve shape parameter describing the steepness of the concentration-effect relationship. The Chou and Talalay method then linearizes the Hill Equation by logarithmic transformation as: where fu is the fraction of cells left unaffected after drug exposure, fa is the fraction of cells affected by the exposure, C is the drug concentration used, Cm is the concentration to achieve the median effect, and n is the curve shape parameter. Cm and n are equivalent to IC50 and n, respectively, in the Hill Equation. The values of n (obtained from the slope), nlog(Cm) (obtained from the absolute value of the intercept), and, therefore, Cm are obtained by plotting log(fu−1−1) versus log(C). These numbers are then used to compute the Combination Index (CI) according to the formula: CI=(D)1/(Dx)1+(D)2/(Dx)2 (26). (Dx)1 and (Dx)2 are the doses required to achieve a given effect level for each treatment, i.e. a specified value of Fraction Affected or Fa. (D)1 and (D)2 are the doses of each treatment in a given combination which gives the same Fa.\nFor FIG. 19 MTT assays were used to determine the effect of Bouvardin (concentrations in uM) in combination with ionizing radiation (in Gy). The data from same-day treatment of IR and Bouvardin are shown, for comparison with taxol-Bouvardin combination that were also applied on the same day. In general, CI values were lower for FaDu cells than for Det562 cells in two separate experiments (only one set is shown). On Det562 cells, CI values were about 1 for most combinations. CI value for Det562 cells at 0.001 uM/1Gy and at >0.06 uM are not included in the graph because the values are >10 and would have made smaller values harder to see. On FaDu cells, CI values were below 1 at concentrations of 0.03 or lower, were about 1 for 0.06 uM drug, and were over 1 at higher concentrations.\nThe growth inhibitory effects of Bouvardin with ionizing radiation (IR) were evaluated using a modified tetrazolium salt (MTT) assay. In the MTT assay, 1,000 to 2,000 viable cells were plated in 100 uL of growth medium in 96-well plates (Corning, Ithaca, N.Y.). Following an overnight incubation, drug was added in varying concentrations and the plates were irradiated on the same day (co-treatment) or 24 hr later (pre-treatment) and incubated for 6 to 7 days. The tetrazolium salt was added at a concentration of 0.4 mg/mL to each well following the 6- to 7-day treatment. The plates were incubated with the salt for 4 hours at 37° C. At 4 hours, the medium was aspirated off, leaving the dark blue formazan product at the bottom of the wells. The reduced MTT product was solubilized by adding […] of 0.2 N HCl in 75% isopropanol, 23% MilliQ water to each well. Thorough mixing was done using a Titertek multichannel pipetman. The absorbency of each well was measured using an automated plate reader (Molecular Devices, Sunnyvale, Calif.). All experiments were done in triplicate."}}, "note": "Like-named read-outs stand apart in the source and are kept apart here.", "data": [{"molecule": "COc1ccc(C[C@H]2C(=O)N[C@H](C)C(=O)N(C)[C@@H]3C(=O)N(C)[C@@H](Cc4ccc(O)c(c4)Oc4ccc(cc4)[C@H]3O)C(=O)N[C@@H](C)C(=O)N[C@H](C)C(=O)N2C)cc1", "note": "(stereo in doubt) [Bouvardin, bouvardin]", "values": [{"measurement": "effect on radiation-induced reduction of clonogenicity", "setting": "[1]", "result": "increased the effect of radiation in reducing the clonogenicity"}, {"measurement": "interaction of Bouvardin with radiation across the panel", "setting": "[2]", "result": "synergize in most, but not all of these cell lines"}, {"measurement": "interaction of Bouvardin with IR", "setting": "[3]", "result": "a wide range of effects, synergistic to antagonistic"}, {"measurement": "CI value, Bouvardin with IR", "setting": "[3]; 0.001 uM/1Gy", "result": "> 10"}, {"measurement": "CI value, Bouvardin with IR", "setting": "[3]; at >0.06 uM", "result": "> 10"}, {"measurement": "interaction of Bouvardin with IR", "setting": "[3]; listed as bouvardin", "result": "synergizes with ionizing radiation"}, {"measurement": "CI values, Bouvardin with IR", "setting": "[3]; most combinations", "result": "about 1"}]}]}
